Here are results for two substances from patent publication US20230330221A1, “ADJUVANT BASED ON PEPTIDE NUCLEIC ACID” (priority 2019, published 2023).

Entries after “also recorded” stand apart in the source; their conditions may differ. Where two headings read alike, the source gives them in different places.

Assay [1] relates to B/Maryland/15/2016 strain. The format is in vivo. As to conditions: transnasal, 10 μg adjuvant + 1 μg HA split antigen per shot, BALB/c mouse, both first and second administrations; versus adjuvant-free group; Mann-Whitney U test, p<0.05 (FIG. 3B).
Assay [2] concerns A/Singapore/GP1908/2015 strain. It counts as in vivo, BALB/c mouse. The settings on record: subcutaneous, 1 μg adjuvant per shot, after the second administration; rank among MIP01, adjuvant-free and CPP01 groups (FIG. 2).
Assay [3] deals with B/Maryland/15/2016 strain. The format is in vivo, BALB/c mouse. As to conditions: subcutaneous, both first and second administrations.
Assay [4] has as its system A/Singapore/GP1908/2015 strain. It counts as in vivo, BALB/c mouse. The settings on record: subcutaneous, both first and second administrations.
Assay [5] concerns B/Maryland/15/2016 strain. The format is in vivo, BALB/c mouse. The settings on record: transnasal, 10 μg adjuvant per shot; rank among MIP01, adjuvant-free and CPP01 groups (FIG. 4B).
Assay [6] concerns A/Singapore/GP1908/2015 strain. It counts as in vivo, BALB/c mouse. The settings on record: transnasal, 10 μg adjuvant per shot; rank among MIP01, adjuvant-free and CPP01 groups (FIG. 4A).
Assay [7] has as its system A/Singapore/GP1908/2015 strain. The format is in vivo. As to conditions: transnasal, 10 μg adjuvant + 1 μg HA split antigen per shot, BALB/c mouse, both first and second administrations; versus adjuvant-free group (FIG. 3A).

“GRKKRRQRRRPPQ-G3PNA (C-terminal G3PNA conjugate; Human immunodeficiency virus) [MIP01]”: the “blood antigen-specific IgG titer against B/Maryland/15/2016 strain” value in assay [1] is given as “higher as compared to that in the adjuvant-free group; also recorded: significant increase in antibody titer with respect to the adjuvant-free group”; in assay [3] (1 μg adjuvant + 1 μg HA split antigen per shot, BALB/c mouse, versus adjuvant-free group (FIG. 1B)) it was “higher as compared to that in the adjuvant-free group”; in assay [3] (1 μg adjuvant per shot, compared to the CPP01 administration group (FIG. 1B)), “showed a higher blood antigen-specific IgG titer”. Further, the “neutralizing antibody titer against A/Singapore/GP1908/2015 strain” value in assay [2] was “highest value”. For the same substance, the “blood antigen-specific IgG titer against A/Singapore/GP1908/2015 strain” value in assay [4] (1 μg adjuvant + 1 μg HA split antigen per shot, BALB/c mouse, versus adjuvant-free group (FIG. 1A)) is listed as “higher as compared to that in the adjuvant-free group”; in assay [4] (1 μg adjuvant per shot, compared to the CPP01 administration group (FIG. 1A)), “showed a higher blood antigen-specific IgG titer”; in assay [7], “higher as compared to that in the adjuvant-free group”. Also, the “antigen-specific IgA titer in the nasal cavity wash against B/Maryland/15/2016 strain” value in assay [5] was “highest”. In addition, in assay [6], the “antigen-specific IgA titer in the nasal cavity wash against A/Singapore/GP1908/2015 strain” value was “highest”.
“GRKKRRQRRRPPQ (Human immunodeficiency virus) [CPP01, reference compound]”: the “neutralizing antibody titer against A/Singapore/GP1908/2015 strain” value in assay [2] is recorded as “lowest value”. In assay [5], the “antigen-specific IgA titer in the nasal cavity wash against B/Maryland/15/2016 strain” value is “lowest”. The “antigen-specific IgA titer in the nasal cavity wash against A/Singapore/GP1908/2015 strain” value in assay [6] is recorded as “lowest”.
